US20250333397A1 (REMIX THERAPEUTICS INC., priority 2021, published 2025)
pIC50: −log10 of the molar value. Like-named read-outs stand apart in the source and are kept apart here.

How the values were obtained:
Assay type in all cases: cell-based, human
[1] = test system: HTT mRNA; assay: RT-qPCR splicing assay, HTT canonical (CJ) and alternative (AJ) junction mRNA; conditions: Homo sapiens; for AC50: read-out: HTT AJ (AC50, increase in AJ mRNA)
Summary of the method: (§1)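 CJ and AJ junction levels were quantified by RT-qPCR on lysates, with housekeeper ΔCt normalized to DMSO (ΔΔCt) and expressed as RQ = 2^(-ΔΔCt). Before lysis, K562 or A673 cells had 24 h compound exposure at 37 °C. Dosing was 11 points, 3-fold, from 10 uM final, with DMSO at most 0.25%.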

[2] = test system: MYB mRNA; assay: RT-qPCR splicing assay, MYB canonical (CJ) and alternative (AJ) junction mRNA; conditions: Homo sapiens; for AC50: read-out: MYB AJ (AC50, increase in AJ mRNA)
Summary of the method: as §1

[3] = test system: SMN2 mRNA; assay: RT-qPCR splicing assay panel, SMN2 canonical junction (CJ) mRNA; conditions: Homo sapiens
Summary of the method: as §1

[4] = test system: Target C mRNA; assay: RT-qPCR splicing assay panel, Target C canonical junction (CJ) mRNA; conditions: Homo sapiens
Summary of the method: as §1

[5] = 24 h, Table 3A, A673 or K562 cells, 24 h treatment
[6] = 24 h, Table 3A, A673 or K562 cells, 24 h treatment, read-out: HTT CJ (IC50, decrease in CJ mRNA)
[7] = canonical junction (CJ) mRNA, RT-qPCR panel, Table 4A, read-out: HTT, decrease in CJ mRNA levels, IC50
[8] = 24 h, Table 3A, A673 or K562 cells, 24 h treatment, read-out: MYB CJ (IC50, decrease in CJ mRNA)
[9] = canonical junction (CJ) mRNA, RT-qPCR panel, Table 4A, read-out: MYB, decrease in CJ mRNA levels, IC50
[10] = canonical junction (CJ) mRNA, RT-qPCR panel, Table 4A, read-out: SMN2, decrease in CJ mRNA levels, IC50
[11] = canonical junction (CJ) mRNA, RT-qPCR panel, Table 4A, read-out: Target C, decrease in CJ mRNA levels, IC50
[12] = 24 h, Table 3B, A673 or K562 cells, 24 h treatment
[13] = 24 h, Table 3B, A673 or K562 cells, 24 h treatment, read-out: HTT CJ (IC50, decrease in CJ mRNA)
[14] = Table 4B, gene panel, read-out: HTT (IC50, decrease in CJ mRNA levels)
[15] = 24 h, Table 3B, A673 or K562 cells, 24 h treatment, read-out: MYB CJ (IC50, decrease in CJ mRNA)
[16] = Table 4B, gene panel, read-out: MYB (IC50, decrease in CJ mRNA levels)
[17] = Table 4B, gene panel, read-out: SMN2 (IC50, decrease in CJ mRNA levels)
[18] = Table 4B, gene panel, read-out: Target C (IC50, decrease in CJ mRNA levels)

Cc1cn(-c2cc(O)c(-c3ccc(N4CC[C@H](NC5CCC5)C4)nn3)cc2F)cn1 [Compound 227, 2-{6-[(3S)-3-(cyclobutylamino)pyrrolidin-1-yl]pyridazin-3-yl}-4-fluoro-5-(4-methylimidazol-1-yl)phenol]
AC50 [1, 5]: < 100 nM
pIC50 [1, 6]: > 7.00
pIC50 [1, 7]: > 7.00
AC50 [2, 5]: 100 to 1000 nM
pIC50 [2, 8]: 6.00 to 7.00
pIC50 [2, 9]: 6.00 to 7.00
pIC50 [3, 10]: > 7.00
pIC50 [4, 11]: 6.00 to 7.00

Cc1ccc(-c2cc(O)c(-c3ccc(N4CC[C@H](NC5CCC5)C4)nn3)cc2F)cn1 [Compound 223, 2-{6-[(3S)-3-(cyclobutylamino)pyrrolidin-1-yl]pyridazin-3-yl}-4-fluoro-5-(6-methylpyridin-3-yl)phenol]
AC50 [1, 5]: 100 to 1000 nM
pIC50 [1, 6]: 6.00 to 7.00
pIC50 [1, 7]: 6.00 to 7.00
AC50 [2, 5]: 100 to 1000 nM
pIC50 [2, 8]: 6.00 to 7.00
pIC50 [2, 9]: 6.00 to 7.00
pIC50 [3, 10]: 6.00 to 7.00
pIC50 [4, 11]: 5.00 to 6.00

Cc1nc2cc(O)c(-c3ccc(N4CCC(C)(NC(C)(C)C)C4)nn3)cc2o1 (stereo not shown) [Compound 837]
AC50 [1, 12]: 1000 to 10000 nM
pIC50 [1, 13]: 6.00 to 7.00
pIC50 [1, 14]: 6.00 to 7.00
AC50 [2, 12]: 1000 to 10000 nM
pIC50 [2, 15]: 5.00 to 6.00
pIC50 [2, 16]: 5.00 to 6.00
pIC50 [3, 17]: 6.00 to 7.00
pIC50 [4, 18]: 5.00 to 6.00

CN(C)c1cc(-c2ccc(-c3ccc(N4CCC(NC5CCC5)C4)nn3)c(O)c2)cnn1 (stereo not shown) [Compound 409]
AC50 [1, 5]: > 10000 nM
pIC50 [1, 6]: < 5.00
pIC50 [1, 7]: < 5.00
AC50 [2, 5]: > 10000 nM
pIC50 [2, 8]: < 5.00
pIC50 [2, 9]: < 5.00
pIC50 [3, 10]: < 5.00
pIC50 [4, 11]: < 5.00

Cc1nc2cc(O)c(-c3cnc(N4C[C@@H](C)N[C@@H](C5CC5)C4)nn3)cc2o1 [Compound 870]
AC50 [1, 12]: 1000 to 10000 nM
pIC50 [1, 13]: 5.00 to 6.00
pIC50 [1, 14]: 5.00 to 6.00
AC50 [2, 12]: 1000 to 10000 nM
pIC50 [2, 15]: 5.00 to 6.00
pIC50 [2, 16]: 5.00 to 6.00
pIC50 [3, 17]: 5.00 to 6.00
pIC50 [4, 18]: 5.00 to 6.00

Cc1nsc(-c2cc(O)c(-c3ccc(N4CC[C@@H](NCC5CC5)C4)nn3)cc2F)n1 [Compound 431]
AC50 [1, 5]: 100 to 1000 nM
pIC50 [1, 6]: 6.00 to 7.00
pIC50 [1, 7]: 6.00 to 7.00
AC50 [2, 5]: 100 to 1000 nM
pIC50 [2, 8]: 6.00 to 7.00
pIC50 [2, 9]: 6.00 to 7.00
pIC50 [3, 10]: > 7.00
pIC50 [4, 11]: 6.00 to 7.00

Oc1cc(-c2cn[nH]c2)c(F)cc1-c1ccc(N2CCC(NC3CC3)C2)nn1 (stereo in doubt) [Compound 105, 2-{6-[(3R)-3-(cyclopropylamino)pyrrolidin-1-yl]pyridazin-3-yl}-4-fluoro-5-(1H-pyrazol-4-yl)phenol]
AC50 [1, 5]: < 100 nM
pIC50 [1, 6]: > 7.00
pIC50 [1, 7]: > 7.00
AC50 [2, 5]: 100 to 1000 nM
pIC50 [2, 8]: 6.00 to 7.00
pIC50 [2, 9]: 6.00 to 7.00
pIC50 [3, 10]: > 7.00
pIC50 [4, 11]: > 7.00

Cc1ncc(-c2ccc(-c3ccc(OC4CC(C)(C)NC(C)(C)C4)nn3)c(O)c2)s1 [Compound 329]
AC50 [1, 5]: < 100 nM
pIC50 [1, 6]: > 7.00
pIC50 [1, 7]: > 7.00
AC50 [2, 5]: 100 to 1000 nM
pIC50 [2, 8]: 6.00 to 7.00
pIC50 [2, 9]: 6.00 to 7.00
pIC50 [3, 10]: > 7.00
pIC50 [4, 11]: > 7.00

Cc1ncc(-c2ccc(-c3ccc(N4CC[C@@H](N(C)C5CCC5)C4)nn3)c(O)c2)s1 [Compound 270, 2-{6-[(3R)-3-[cyclobutyl(methyl)amino]pyrrolidin-1-yl]pyridazin-3-yl}-5-(2-methyl-1,3-thiazol-5-yl) phenol]
AC50 [1, 5]: > 10000 nM
pIC50 [1, 6]: < 5.00
pIC50 [1, 7]: < 5.00
AC50 [2, 5]: > 10000 nM
pIC50 [2, 8]: < 5.00
pIC50 [2, 9]: < 5.00
pIC50 [3, 10]: 6.00 to 7.00
pIC50 [4, 11]: < 5.00

COc1cncc(-c2ccc(-c3ccc(N4CC[C@H](NC5CCC5)C4)nn3)c(O)c2)c1 [Compound 304]
AC50 [1, 5]: 1000 to 10000 nM
pIC50 [1, 6]: 5.00 to 6.00
pIC50 [1, 7]: 5.00 to 6.00
AC50 [2, 5]: 1000 to 10000 nM
pIC50 [2, 8]: 5.00 to 6.00
pIC50 [2, 9]: 5.00 to 6.00
pIC50 [3, 10]: 5.00 to 6.00
pIC50 [4, 11]: 5.00 to 6.00

Cc1ncc(-c2ccc(-c3ccc(N4CC[C@@](C)(NC5CCC5)C4)nn3)c(O)c2)s1 [Compound 356]
AC50 [1, 5]: < 100 nM
pIC50 [1, 6]: > 7.00
pIC50 [1, 7]: > 7.00
AC50 [2, 5]: 100 to 1000 nM
pIC50 [2, 8]: 6.00 to 7.00
pIC50 [2, 9]: 6.00 to 7.00
pIC50 [3, 10]: > 7.00
pIC50 [4, 11]: 6.00 to 7.00

COc1cc(-c2cc(O)c(-c3ccc(N4CC[C@@H](NC5(C)CCC5)C4)nn3)cc2F)cnn1 [Compound 286]
AC50 [1, 5]: 100 to 1000 nM
pIC50 [1, 6]: > 7.00
pIC50 [1, 7]: > 7.00
AC50 [2, 5]: 1000 to 10000 nM
pIC50 [2, 8]: 5.00 to 6.00
pIC50 [2, 9]: 5.00 to 6.00
pIC50 [3, 10]: > 7.00
pIC50 [4, 11]: 6.00 to 7.00

COc1cc(-c2ccc(-c3ccc(N4CC[C@H](N(CCF)C5CCC5)C4)nn3)c(O)c2)cnn1 [Compound 303]
AC50 [1, 5]: 100 to 1000 nM
pIC50 [1, 6]: 6.00 to 7.00
pIC50 [1, 7]: 6.00 to 7.00
AC50 [2, 5]: > 10000 nM
pIC50 [2, 8]: < 5.00
pIC50 [2, 9]: < 5.00
pIC50 [3, 10]: 6.00 to 7.00
pIC50 [4, 11]: < 5.00

COc1cc(-c2cc(O)c(-c3ccc(N4CC[C@@H](NC5CCC5)C4)nn3)cc2F)cnn1 [Compound 230, 2-{6-[(3R)-3-(cyclobutylamino)pyrrolidin-1-yl]pyridazin-3-yl}-4-fluoro-5-(6-methoxypyridazin-4-yl)phenol]
AC50 [1, 5]: 100 to 1000 nM
pIC50 [1, 6]: 6.00 to 7.00
pIC50 [1, 7]: 6.00 to 7.00
AC50 [2, 5]: 1000 to 10000 nM
pIC50 [2, 8]: 5.00 to 6.00
pIC50 [2, 9]: 5.00 to 6.00
pIC50 [3, 10]: > 7.00
pIC50 [4, 11]: 5.00 to 6.00

Cc1cc(-c2ccc(-c3ccc(N4CC[C@@H](NC5CCC5)C4)nn3)c(O)c2)cnn1 [Compound 292, 2-{6-[(3R)-3-(cyclobutylamino)pyrrolidin-1-yl]pyridazin-3-yl}-5-(6-methylpyridazin-4-yl)phenol]
AC50 [1, 5]: > 10000 nM
pIC50 [1, 6]: < 5.00
pIC50 [1, 7]: < 5.00
AC50 [2, 5]: > 10000 nM
pIC50 [2, 8]: < 5.00
pIC50 [2, 9]: < 5.00
pIC50 [3, 10]: 5.00 to 6.00
pIC50 [4, 11]: < 5.00

Cc1nc(C)c(-c2cc(O)c(-c3ccc(N4CC[C@H](NC5CCC5)C4)nn3)cc2F)s1 [Compound 386]
AC50 [1, 5]: 1000 to 10000 nM
pIC50 [1, 6]: 6.00 to 7.00
pIC50 [1, 7]: 6.00 to 7.00
AC50 [2, 5]: 1000 to 10000 nM
pIC50 [2, 8]: 5.00 to 6.00
pIC50 [2, 9]: 5.00 to 6.00
pIC50 [3, 10]: 6.00 to 7.00
pIC50 [4, 11]: 5.00 to 6.00

Cc1nc2ccc(-c3ccc(-c4ccc(N5CCC(NC6CCC6)C5)nn4)c(O)c3)cc2o1 (stereo not shown) [Compound 316]
AC50 [1, 5]: 100 to 1000 nM
pIC50 [1, 6]: 6.00 to 7.00
pIC50 [1, 7]: 6.00 to 7.00
AC50 [2, 5]: 100 to 1000 nM
pIC50 [2, 8]: 5.00 to 6.00
pIC50 [2, 9]: 5.00 to 6.00
pIC50 [3, 10]: 6.00 to 7.00
pIC50 [4, 11]: 6.00 to 7.00
